For 36 compounds, IC50 results are on record in ChEMBL document CHEMBL4808217, “Design, Synthesis, and Characterization of 4-Aminoquinazolines as Potent Inhibitors of the G Protein-Coupled Receptor Kinase 6 (GRK6) for the Treatment of Multiple Myeloma” (J Med Chem, 2021).

The target in one assay is T1, Aurora kinase A (Homo sapiens, UniProt O14965).
T1 sequence (O14965 whole entry): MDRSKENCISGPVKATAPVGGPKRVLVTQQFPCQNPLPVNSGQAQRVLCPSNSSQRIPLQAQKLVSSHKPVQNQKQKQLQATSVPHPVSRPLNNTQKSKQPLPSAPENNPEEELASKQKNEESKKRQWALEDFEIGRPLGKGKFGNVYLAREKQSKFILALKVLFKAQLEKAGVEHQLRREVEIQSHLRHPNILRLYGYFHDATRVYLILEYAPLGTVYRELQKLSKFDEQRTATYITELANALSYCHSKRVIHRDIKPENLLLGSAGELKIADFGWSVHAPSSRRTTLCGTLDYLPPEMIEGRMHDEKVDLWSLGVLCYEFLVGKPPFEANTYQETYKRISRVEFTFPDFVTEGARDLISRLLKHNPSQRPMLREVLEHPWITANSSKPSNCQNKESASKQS
Nature of the assay: Inhibition of recombinant full length human Aurora A using LRRASLG as substrate incubated for 40 mins in presence of [gamma-33ATP] by radiometric scintillation counting method.

Assay [1] deals with T2, G protein-coupled receptor kinase 6 (Homo sapiens, UniProt P43250). Nature of the assay: Inhibition of recombinant full-length human GRK6 using casein as substrate measured after 80 mins in presence of [gamma33P]ATP by radiometric scintillation counting method.
Assay [2] has as its target T2, G protein-coupled receptor kinase 6. The experiment in a line: Binding affinity to FLAG-tagged GRK6 in human KMS11 cells incubated for […] by ITDR assay. The assay is classed as cell-based, KMS-11.
For assay [3], the target named is Insulin-like growth factor 1 receptor (Homo sapiens, UniProt P08069). Nature of the assay: Inhibition of recombinant human IGF-1R (959 to end residues) using KKKSPGEYVNIEF as substrate incubated for 40 mins in presence of [gamma-33ATP] by radiometric scintillation counting method.
Sequence of Insulin-like growth factor 1 receptor (P08069 31-736 limits assumed): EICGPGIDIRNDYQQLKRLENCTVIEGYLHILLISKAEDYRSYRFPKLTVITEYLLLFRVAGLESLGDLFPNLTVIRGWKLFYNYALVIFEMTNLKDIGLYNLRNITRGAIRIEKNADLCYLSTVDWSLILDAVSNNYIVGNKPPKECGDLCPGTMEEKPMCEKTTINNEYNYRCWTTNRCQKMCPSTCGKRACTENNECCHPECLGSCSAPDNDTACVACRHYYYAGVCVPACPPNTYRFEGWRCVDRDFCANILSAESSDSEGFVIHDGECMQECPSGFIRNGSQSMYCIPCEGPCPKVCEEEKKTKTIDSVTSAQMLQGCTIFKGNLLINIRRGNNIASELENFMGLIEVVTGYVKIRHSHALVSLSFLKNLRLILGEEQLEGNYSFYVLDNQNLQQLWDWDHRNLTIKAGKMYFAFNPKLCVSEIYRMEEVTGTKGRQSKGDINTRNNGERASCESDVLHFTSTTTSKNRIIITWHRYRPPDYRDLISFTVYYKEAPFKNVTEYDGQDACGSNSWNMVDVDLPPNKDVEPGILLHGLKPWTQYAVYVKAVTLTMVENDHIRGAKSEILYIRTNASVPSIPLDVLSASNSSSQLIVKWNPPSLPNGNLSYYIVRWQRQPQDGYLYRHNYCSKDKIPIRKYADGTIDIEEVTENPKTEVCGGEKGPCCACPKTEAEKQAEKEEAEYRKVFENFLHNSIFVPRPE
Sequence of Insulin-like growth factor 1 receptor (P08069 741-1367 limits assumed): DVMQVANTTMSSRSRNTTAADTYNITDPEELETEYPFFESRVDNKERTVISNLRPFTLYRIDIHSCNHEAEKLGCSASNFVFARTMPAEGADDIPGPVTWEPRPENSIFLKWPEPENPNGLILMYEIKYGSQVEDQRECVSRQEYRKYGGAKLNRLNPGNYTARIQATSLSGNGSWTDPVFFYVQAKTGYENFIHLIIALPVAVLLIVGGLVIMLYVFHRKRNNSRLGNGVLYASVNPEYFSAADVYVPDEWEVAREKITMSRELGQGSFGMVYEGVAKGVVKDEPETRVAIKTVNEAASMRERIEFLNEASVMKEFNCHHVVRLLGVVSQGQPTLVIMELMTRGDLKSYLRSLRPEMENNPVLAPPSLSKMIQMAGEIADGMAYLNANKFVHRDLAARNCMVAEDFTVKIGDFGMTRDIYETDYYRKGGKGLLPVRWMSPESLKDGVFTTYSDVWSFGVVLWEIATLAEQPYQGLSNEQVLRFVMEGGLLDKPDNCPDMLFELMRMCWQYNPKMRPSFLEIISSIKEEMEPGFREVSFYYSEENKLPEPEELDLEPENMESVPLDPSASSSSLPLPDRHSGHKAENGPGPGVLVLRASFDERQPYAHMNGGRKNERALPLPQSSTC

T2 sequence (P43250 whole entry): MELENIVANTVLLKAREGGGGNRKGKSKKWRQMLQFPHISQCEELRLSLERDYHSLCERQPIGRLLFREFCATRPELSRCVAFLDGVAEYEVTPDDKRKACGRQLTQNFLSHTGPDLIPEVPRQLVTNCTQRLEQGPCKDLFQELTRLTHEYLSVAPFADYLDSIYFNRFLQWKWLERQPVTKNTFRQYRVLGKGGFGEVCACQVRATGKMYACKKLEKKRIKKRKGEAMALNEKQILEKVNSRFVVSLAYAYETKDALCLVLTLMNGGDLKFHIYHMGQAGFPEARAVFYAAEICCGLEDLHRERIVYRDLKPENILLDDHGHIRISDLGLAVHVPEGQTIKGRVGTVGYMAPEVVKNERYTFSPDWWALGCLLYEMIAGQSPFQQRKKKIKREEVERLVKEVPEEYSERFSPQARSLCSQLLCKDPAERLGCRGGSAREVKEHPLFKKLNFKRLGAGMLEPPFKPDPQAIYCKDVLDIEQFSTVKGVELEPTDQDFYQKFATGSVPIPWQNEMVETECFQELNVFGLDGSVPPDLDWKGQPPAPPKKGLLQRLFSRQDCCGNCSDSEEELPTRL

As for `CCc1cc(Nc2nc(N[C@@H](C)c3ccc(C#N)cn3)nc3cccc(F)c23)n[nH]1`, the IC50 (usually the concentration needed to halve the response being measured) on Aurora kinase A amounted to 220 nM; in assay [1], 91 nM.

As for `CCn1cnc(Nc2nc(N[C@@H](C)c3ccc(F)cn3)nc3cccc(F)c23)c1`, the IC50 in assay [1] is 280 nM. For the compound `CCc1cc(Nc2nc(N[C@@H](C)c3ccc(F)cc3)nc3cccc(F)c23)n[nH]1`, the IC50 at Aurora kinase A stood at 51 nM; in assay [1], 41 nM.

Turning to `CCc1cc(Nc2nc(NCCc3ccc(F)cc3)nc3cc(F)ccc23)n[nH]1`, the IC50 in assay [1] was found to be 180 nM. As for `CCc1cc(Nc2nc(N[C@@H](C)c3ccc(C)cc3)nc3cccc(F)c23)n[nH]1`, the values for the IC50 (on Aurora kinase A; in assay [1]) were 75 nM and 27 nM, respectively.

Consider `CCc1cc(Nc2nc(N[C@@H](C)c3ccc(F)cn3)nc3cccc(C)c23)n[nH]1`, for which the IC50 came to 330 nM on Aurora kinase A, 11 nM in assay [1] and 610 nM in assay [2]. `CCc1cc(Nc2nc(N[C@@H](C)c3ccc(F)cc3)nc3ccccc23)n[nH]1`: the IC50 came to 11 nM on Aurora kinase A and 120 nM in assay [1]. On to `CCc1cc(Nc2nc(NCc3ccc(Cl)cc3)nc3cccc(OC)c23)n[nH]1`, for which the IC50 is > 10000 nM in assay [3], > 10000 nM at Aurora kinase A, 16 nM in assay [1] and 2000 nM in assay [2]. With `CCc1cc(Nc2nc(NCCc3ccc(F)cc3)nc3ccc(OC)cc23)n[nH]1`, in assay [1], the IC50 came to 460 nM. With `CCc1cc(Nc2nc(NCCc3ccc(F)cc3)nc3cc(Cl)ccc23)n[nH]1`, in assay [1], the IC50 came out at 1100 nM. Same read-out and setting: the value for `CCc1cc(Nc2nc(N[C@@H](C)c3ccc(OC)cc3)nc3ccccc23)n[nH]1` was 290 nM. Consider `CCc1cc(Nc2nc(NCCc3ccc(F)cc3)nc3cccc(F)c23)n[nH]1`, for which the IC50 at Aurora kinase A was determined as 180 nM; in assay [1], 110 nM.

With `CCc1cc(Nc2nc(NCc3ccc(Cl)cc3)nc3cccc(C)c23)n[nH]1`, the results for the IC50 (in assay [3]; on Aurora kinase A; in assay [1]) were > 10000 nM, 1200 nM and 27 nM, respectively. With `CCc1cc(Nc2nc(N[C@H](C)c3ccc(F)cc3)nc3ccccc23)n[nH]1`, the IC50 in assay [1] was 1400 nM. The same measure, in the same setting: the value for `CCc1cc(Nc2nc(N[C@@H](C)c3ccc(F)cc3)nc3ccc(F)cc23)n[nH]1` was 160 nM.

`CCc1cc(Nc2nc(N[C@@H](C)c3ccc(F)cn3)nc3cccc(F)c23)n[nH]1`: the IC50 on Aurora kinase A came to 25 nM; in assay [1], 29 nM. Regarding `CCc1cc(Nc2nc(NCc3ccc(F)cc3)nc3ccccc23)n[nH]1`, in assay [1], the IC50 worked out at 250 nM. Regarding `CCc1cc(Nc2nc(N[C@@H](C)c3ccc(F)cc3)nc3ccc(OC)cc23)n[nH]1`, the IC50 in assay [1] is 140 nM. Turning to `CCc1cc(Nc2nc(NCc3ccc(Cl)cc3OC)nc3cccc(C)c23)n[nH]1`, the IC50 at Aurora kinase A is 1200 nM; in assay [1], 6 nM; in assay [2] it was 170 nM. On to `CCc1cc(Nc2nc(NC3(c4ccc(Cl)cc4)CC3)nc3ccccc23)n[nH]1`, for which, in assay [1], the IC50 stood at 280 nM. On the same count and under the same terms, the value for `Fc1cccc2nc(NCCc3ccccc3)nc(Nc3cc[nH]n3)c12` was 2500 nM.

Consider `CCc1cc(Nc2nc(NCCc3ccccc3)nc3cccc(F)c23)n[nH]1`, for which the IC50 in assay [1] amounted to 20 nM. Same read-out and setting: the value for `Fc1cccc2nc(NCCc3ccccc3)nc(Nc3ccon3)c12` was > 10000 nM. Turning to `CCc1cc(Nc2nc(NCCc3ccccc3)nc3cccc(OC)c23)n[nH]1`, the IC50 in assay [3] is > 10000 nM; on Aurora kinase A it was > 10000 nM; in assay [1], 10 nM. Turning to `CCc1cc(Nc2nc(N[C@@H](C)C3CCCCC3)nc3ccccc23)n[nH]1`, the IC50 in assay [1] worked out at 960 nM. The same measure, in the same setting: the value for `CCc1cc(Nc2nc(N[C@@H](C)c3ccc(Cl)cc3)nc3ccccc23)n[nH]1` was 70 nM. As to `CCc1cc(Nc2nc(N[C@@H](C)c3ccc(F)cc3)nc3cc(F)ccc23)n[nH]1`, the IC50 in assay [1] is 100 nM. Turning to `CCc1cc(Nc2nc(N[C@@H](C)c3ccc(Cl)cn3)nc3cccc(OC)c23)n[nH]1`, the IC50 was 22000 nM at Aurora kinase A and 3.5 nM in assay [1]. With `CCc1cc(Nc2nc(NCCc3ccc(F)cc3)nc3ccc(F)cc23)n[nH]1`, the IC50 in assay [1] worked out at 310 nM. Consider `CCc1cc(Nc2nc(N[C@@H](C)c3ncc(F)cn3)nc3cccc(F)c23)n[nH]1`, for which the IC50 at Aurora kinase A turned out to be 80 nM; in assay [1], 230 nM.

Take `CCc1cc(Nc2nc(N[C@@H](C)c3ccc(F)cc3)nc3cc(Cl)ccc23)n[nH]1`: in assay [1], the IC50 amounted to 440 nM. The same measure, in the same setting: the figure for `CCOc1ccc(Nc2nc(N[C@@H](C)c3ccc(F)cn3)nc3cccc(F)c23)cn1` is > 10000 nM; for `CCc1cc(Nc2nc(NCc3ccc(Cl)cc3OC)nc3ccccc23)n[nH]1` it is 40 nM. Still for that read-out and setting: the value for `CCc1cc(Nc2nc(N[C@@H](C)c3cccc(F)c3)nc3ccccc23)n[nH]1` was 340 nM; that for `CCc1cc(Nc2nc(NCCN3CCOCC3)nc3cccc(F)c23)n[nH]1` was 1400 nM.

Take `CCc1cc(Nc2nc(NCCc3ccc(F)cc3)nc3ccccc23)n[nH]1`: the IC50 at Aurora kinase A was determined as 41 nM; in assay [1], 190 nM.
